Values of other authors as cited in US8350059B2, “Intermediates and methods for making zearalenone macrolide analogs” (Eisai R&D Management Co., Ltd., priority 2007, dated 2013).

Tested on: Map/Erk kinase (MEK)
Conditions: background statement

COc1cc(O)c2c(c1)/C=C/C[C@H](O)[C@H](O)C(=O)/C=C\C[C@H](C)OC2=O [F152]
inhibition of the phosphorylating enzyme Map/Erk kinase (MEK): inhibit the phosphorylating enzyme Map/Erk kinase (MEK)
